pIC50, pKi: −log10 of the molar value. Like-named read-outs stand apart in the source and are kept apart here.
Key:
[1] = test system: IL-1β, human peripheral blood mononuclear cells (PBMC); assay: PBMC cell assay: IL-1β assay with human PBMC or enriched adherent mononuclear cells, LPS-stimulated; format: cell-based; details: Table 17
Procedure, shortened: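 Mature IL-1β is measured by ELISA in supernatants after 16–18 hr at 37 °C, 5% CO2, with LPS (5 ng/ml final) and test compound (0.1% DMSO final). Cells are human PBMC (6×10^6 cells/ml) or plate-adherent mononuclear cells (2.5−3.0×10^5 per well), and the 5–6 compound concentrations span the ICE Ki.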

[2] = test system: IL-1β production, LPS-challenged mice; assay: In vivo acute assay for efficacy as anti-inflammatory agent: LPS-induced IL-1β production in mice; design: species or system mouse; details: LPS challenged mice, compound PO, 50 mg/kg; for inhibition at 50 mg/kg: Mus musculus, po, read-out: percent inhibition of IL-1β production
Procedure: In Vivo Acute Assay for Efficacy as Anti-Inflammatory Agent
LPS-Induced IL-1β Production.
Efficacy of 214e and 217e was evaluated in CD1 mice (n=6 per condition) challenged with LPS (20 mg/kg IP). […] Blood was collected seven hours after LPS challenge. Serum IL-1β levels were measure by ELISA. […] Similar results were obtained in a second experiment. […] However, a clear dose response was not apparent.
Compounds 214e and 217e (50 mg/kg) were also administered by oral gavage to assess absorption.
The efficacy of analogs of 214e were also evaluated in LPS challenged mice after IP administration (FIG. 9) and PO administration (FIG. 10).
[…] The protocol is described in Example 7.

IL-1β, human whole blood = assay: Whole blood assay for IL-1β production; format: cell-based; details: Table 17, read-out: Whole human blood IC50
Procedure, shortened: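 IL-1β was quantified by ELISA in plasma diluted 1:200. The plasma came from EDTA-anticoagulated human whole blood incubated at 30 °C for 16-18 h with LPS (final 5.0 ng/ml) plus a saline serial dilution of compound. Controls were no-LPS, no-inhibitor and highest-vehicle.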

[3] = In vivo rat clearance assay; details: for clearance: plasma, iv
Procedure: In Vivo Rat Clearance Assay
Cannulations of the jugular and carotid vessels of rats under anesthesia were performed one day prior to the pharmacokinetic study. M. J. Free, R. A. Jaffee; ‘Cannulation techniques for the collection blood and other bodily fluids’; in: Animal Models; p. 480-495; N. J. Alexander, Ed.; Academic Press; (1978). Drug (10 mg/mL) was administered via the jugular vein in a vehicle usually consisting of: propylene glycol/saline, containing 100 mM sodium bicarbonate in a 1:1 ratio. Animals were dosed with 10-20 mg drug/kg and blood samples were drawn at 0, 2, 5, 7, 10, 15, 20, 30, 60, and 90 minutes from an indwelling carotid catheter. The blood was centrifuged to plasma and stored at −20° C. until analysis. Pharmacokinetic analysis of data was performed by non-linear regression using standard software such as RStrip (MicroMath Software, UT) and/or Pcnonlin (SCI Software, NC) to obtain clearance values.
Rat plasma was extracted with an equal volume of acetonitrile (containing 0.1% TFA). Samples were then centrifuged at approximately 1,000×g and the supernatant analyzed by gradient HPLC. A typical assay procedure is described below.
A standard curve was run at 20, 10, 5, 2 and 1 μg/mL concentrations.

ICE = target: T1, ICE (Homo sapiens, UniProt P29466); assay: Enzyme assay with UV-visible substrate (visible ICE assay, Succinyl-Tyr-Val-Ala-Asp-pNitroanilide); format: biochemical; details: Table 17
T1 sequence (P29466 120-297 limits assumed): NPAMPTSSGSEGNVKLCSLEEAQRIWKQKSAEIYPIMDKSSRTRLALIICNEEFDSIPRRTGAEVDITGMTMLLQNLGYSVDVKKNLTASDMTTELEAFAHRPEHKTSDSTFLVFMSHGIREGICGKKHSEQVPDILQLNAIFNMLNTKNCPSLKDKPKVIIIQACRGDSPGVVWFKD
T1 sequence (P29466 317-404 limits assumed): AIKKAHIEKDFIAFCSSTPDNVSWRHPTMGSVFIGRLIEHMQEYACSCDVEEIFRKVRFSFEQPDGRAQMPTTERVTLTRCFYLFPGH
Procedure, shortened: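 Colorimetric caspase-1 activity: 15 min enzyme-inhibitor preincubation (RT), then Suc-Tyr-Val-Ala-Asp-pNA; 405-603 nm kinetics, 20 min, 37° C. Ki from rate fitting.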

[4] = 0 h, administered 0 h relative to time of LPS challenge
[5] = 2 h, administered −2 h relative to time of LPS challenge

Compound | inhibition at 50 mg/kg [2, 4] [%] | inhibition at 50 mg/kg [2, 5] [%] | pIC50 (IL-1β, human whole blood; Homo sapiens) | further results
CC(=O)Nc1cccc(C(=O)N[C@H]2CCC(=O)N3CCC[C@@H](C(=O)N[C@H]4CC(=O)OC4OCc4ccccc4)N3C2=O)c1 (mixture of isomers) [Compound 213o, [1S,9S(2RS,3S)]9-[(3-Acetamido)benzamido]-N-(2-benzyloxy-5-oxotetrahydrofuran-3-yl)-6,10-dioxo-1,2,3,4,7,8,9,10-octahydro-6H-pyridazino[1,2-a][1,2]diazepine-1-carboxamide] | – | – | – | pIC50 [1]: 5.30; percent inhibition of IL-1β production ([2]; administered 0 h relative to time of LPS challenge): 8%; percent inhibition of IL-1β production ([2]; administered −2 h relative to time of LPS challenge): 4%; pIC50 (IL-1β, human whole blood): 5.48
COc1cccc2nc(C(=O)[C@H](CC(=O)O)NC(=O)CN3C(=O)[C@@H](NC(=O)CCc4ccccc4)CN(C(=O)CCc4ccccc4)c4ccccc43)oc12 [Compound 108b, 4-(7-Methoxybenzoxazol-2-yl)-4-oxo-3(S)-{2-[2-oxo-5-(3-phenylpropionyl)-3(S)-(3-phenylpropionylamino)-2,3,4,5-tetrahydrobenzo[b][1,4]diazepin-1-yl]-acetylamino}butyric acid] | – | – | – | clearance ([3]; 10-20 mg/kg): > 100 mL/min/kg
COc1cccc(NC(=O)NN2CCC(=O)N3CCC[C@@H](C(=O)N[C@H](C=O)CC(=O)O)N3C2=O)c1 [Compound 265c, [3S(4S)]3-[6,10-Dioxo-7-(3-methoxyphenylureido)-1,2,3,4,7,8,9,10-octahydro-6H-pyridazino[1,2-a][1,2,4]triazepine-4-carboxamido]-4-oxobutanoic acid] | – | – | – | pKi (ICE): 5.96; pIC50 ([1]; Homo sapiens, PBMC): 5.35; clearance ([3]; Table 17): 32 mL/min/kg
CS(=O)(=O)N[C@H]1CCC(=O)N2CCC[C@@H](C(=O)N[C@@H](CC(=O)O)C(=O)COc3cccnc3)N2C1=O [Compound 283b, [3S(1S,9S)]3-(6,10-Dioxo-9-methanesulphonamido-1,2,3,4,7,8,9,10-octahydro-6H-pyridazino[1,2-a][1,2]diazepine-1-carboxamido)-4-oxo-5(3-pyridyloxy)pentanoic acid] | – | – | – | pIC50 [1]: 5.76; Clearance Rat, i.v. ([3]; Table 17): 41 mL/min/kg
CCOC1OC(=O)C[C@@H]1NC(=O)[C@@H]1CCCN2C(=O)CC[C@H](NC(=O)c3ccc(N(C)C)cc3)C(=O)N12 (stereo partly drawn) [Compound 550f, [1S,9S(2RS,3S)]9-[(4-Dimethylaminobenzoyl)amino]-6,10-dioxo-1,2,3,4,7,8,9,10-octahydro-N-(2-ethoxy-5-oxotetrahydrofuran-3-yl)-6H-pyridazino[1,2-a][1,2]diazepine-1-carboxamide] | 50 | 0 | 5.96 | –
CCOC1OC(=O)C[C@@H]1NC(=O)[C@@H]1CCCN2C(=O)CC[C@H](NC(=O)c3ccc(N)c(Cl)c3)C(=O)N12 (stereo partly drawn) [Compound 550h, [1S,9S(2RS,3S)]9-[(3-Chloro-4-aminobenzoyl)amino]-6,10-dioxo-1,2,3,4,7,8,9,10-octahydro-N-(2-ethoxy-5-oxotetrahydrofuran-3-yl)-6H-pyridazino[1,2-a][1,2]diazepine-1-carboxamide] | 73 | 55 | 5.74 | –
CCOC1OC(=O)C[C@@H]1NC(=O)[C@@H]1CCCN2C(=O)CC[C@H](NC(=O)c3ccc(OC)cc3)C(=O)N12 (stereo partly drawn) [Compound 550i, [1S,9S(2RS,3S)]9-[(4-Methoxybenzoyl)amino]-6,10-dioxo-1,2,3,4,7,8,9,10-octahydro-N-(2-ethoxy-5-oxotetrahydrofuran-3-yl)-6H-pyridazino[1,2-a][1,2]diazepine-1-carboxamide] | 23 | -10 | 5.85 | –
CCOC1OC(=O)C[C@@H]1NC(=O)[C@@H]1CCCN2C(=O)CC[C@H](NC(=O)c3cc(Cl)c(O)c(Cl)c3)C(=O)N12 (stereo partly drawn) [Compound 550k, [1S,9S(2RS,3S)]9-[(3,5-Dichloro-4-hydroxybenzoyl)amino]-6,10-dioxo-1,2,3,4,7,8,9,10-octahydro-N-(2-ethoxy-5-oxotetrahydrofuran-3-yl)-6H-pyridazino[1,2-a][1,2]diazepine-1-carboxamide] | 34 | 36 | 5.52 | –
CCOC1OC(=O)C[C@@H]1NC(=O)[C@@H]1CCCN2C(=O)CC[C@H](NC(=O)c3ccc(NC(C)=O)c(Cl)c3)C(=O)N12 (stereo partly drawn) [Compound 550l, [1S,9S (2RS,3S)]9-[(3-Chloro-4-acetamidobenzoyl)amino]-6,10-dioxo-1,2,3,4,7,8,9,10-octahydro-N-(2-ethoxy-5-oxotetrahydrofuran-3-yl)-6H-pyridazino[1,2-a][1,2]diazepine-1-carboxamide] | 38 | 9 | 6.12 | –
CCOC1OC(=O)C[C@@H]1NC(=O)[C@@H]1CCCN2C(=O)CC[C@H](NC(=O)c3cc(Cl)c(OC)c(Cl)c3)C(=O)N12 (stereo partly drawn) [Compound 550m, [1S,9S(2RS,3S)]9-[(3,5-Dichloro-4-methoxybenzoyl)amino]-6,10-dioxo-1,2,3,4,7,8,9,10-octahydro-N-(2-ethoxy-5-oxotetrahydrofuran-3-yl)-6H-pyridazino[1,2-a][1,2]diazepine-1-carboxamide] | 52 | 45 | 5.70 | –
CCOC1OC(=O)C[C@@H]1NC(=O)[C@@H]1CCCN2C(=O)CC[C@H](NC(=O)c3cccc(NC(C)=O)c3)C(=O)N12 (stereo partly drawn) [Compound 550n, [1S,9S (2RS,3S)]9-(3-Acetamido) benzoylamino-6,10-dioxo-N-(2-ethoxy-5-oxo-tetrahydrofuran-3-yl)-1,2,3,4,7,8,9,10-octahydro-6H-pyridazino[1,2-a][1,2]diazepine-1-carboxamide] | 65 | 19 | > 6.52 | –
CCOC1OC(=O)C[C@@H]1NC(=O)[C@@H]1CCCN2C(=O)CC[C@H](NC(=O)c3ccc(O)cc3)C(=O)N12 (stereo partly drawn) [Compound 550p, [1S,9S(2RS,3S)]6,10-Dioxo-N-(2-ethoxy-5-oxotetrahydrofuran-3-yl)-9-(4-hydroxybenzoyl)amino-1,2,3,4,7,8,9,10-octahydro-6H-pyridazino[1,2-a][1,2]diazepine-1-carboxamide] | 60 | 30 | 5.54 | –
CCOC(=O)CC(=COC(C)=O)NC(=O)[C@@H]1CCCN2C(=O)CC[C@H](NC(=O)c3ccccc3)C(=O)N12 [Compound 2100j, [3S(1S,9S)]3-(9-Benzoylamino-6,10-dioxo-1,2,3,4,7,8,9,10-octahydro-6H-pyridazino[1,2-a][1,2]diazepine-1-carboxamido)-4-acetoxy-3-butenoic acid ethyl ester] | 0 | 48 | 4.92 | pKi (ICE): 4.52; inhibition at 50 mg/kg ([2]; 1 h, administered +1 h relative to time of LPS challenge): 33%; inhibition at 50 mg/kg ([2]; 1 h, administered −1 h relative to time of LPS challenge): 41%

Source: US20120165319A1, “INHIBITORS OF INTERLEUKIN-1 BETA CONVERTING ENZYME” (VERTEX PHARMACEUTICALS INCORPORATED, priority 1995, published 2012)
